Experimental data from patent US9834542B2, “LXR modulators” (BRISTOL-MYERS SQUIBB COMPANY, priority 2013, dated 2017).

Biological target: T1, LXRβ (Homo sapiens, UniProt P55055)
T1 construct: Co-transfection expression plasmids, comprising full-length LXRα (pCMX-h LXRα[…] or LXRβ (pCMX-hLXRβ)); expressed in transfected cells; host or cells: CV-1 African Green Monkey Kidney Cells
T1 sequence (P55055 1-460): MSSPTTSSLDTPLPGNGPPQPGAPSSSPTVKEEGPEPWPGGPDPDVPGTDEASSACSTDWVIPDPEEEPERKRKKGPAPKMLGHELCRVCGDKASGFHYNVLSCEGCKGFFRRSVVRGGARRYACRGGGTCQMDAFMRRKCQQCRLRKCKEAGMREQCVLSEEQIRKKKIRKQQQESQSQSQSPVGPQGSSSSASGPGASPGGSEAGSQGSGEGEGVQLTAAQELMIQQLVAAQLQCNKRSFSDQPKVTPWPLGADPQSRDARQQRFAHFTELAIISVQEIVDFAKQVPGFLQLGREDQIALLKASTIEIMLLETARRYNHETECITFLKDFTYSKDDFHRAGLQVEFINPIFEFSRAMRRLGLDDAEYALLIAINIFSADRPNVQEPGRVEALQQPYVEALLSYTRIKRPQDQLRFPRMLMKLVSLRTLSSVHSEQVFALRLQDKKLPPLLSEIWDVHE
T1 sequence (P19793 1-462 partner): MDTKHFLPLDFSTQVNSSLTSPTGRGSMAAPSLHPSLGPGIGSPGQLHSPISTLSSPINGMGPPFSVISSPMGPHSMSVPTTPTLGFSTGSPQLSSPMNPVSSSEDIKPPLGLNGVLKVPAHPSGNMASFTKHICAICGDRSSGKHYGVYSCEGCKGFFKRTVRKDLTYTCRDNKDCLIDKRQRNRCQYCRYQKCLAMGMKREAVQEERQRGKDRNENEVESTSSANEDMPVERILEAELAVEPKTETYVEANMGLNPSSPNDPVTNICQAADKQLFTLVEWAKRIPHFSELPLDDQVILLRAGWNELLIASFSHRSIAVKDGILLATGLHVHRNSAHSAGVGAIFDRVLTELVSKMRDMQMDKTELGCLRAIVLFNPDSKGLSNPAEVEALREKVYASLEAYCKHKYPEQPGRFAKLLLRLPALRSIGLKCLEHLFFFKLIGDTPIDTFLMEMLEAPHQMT
Experiment: Co-transfection assay (LXRE luciferase reporter), LXRβ
Type: cell-based
Settings: for EC50: CV-1 cells transfected with pCMX-hLXRβ and LXREx1-Tk-Luciferase, 20 hours incubation; for Emax: LXRβ co-transfection, relative to high control 1-(2,4-difluorobenzyl)-2-oxo-6-(4-phenoxyphenyl)-4-(trifluoromethyl)-1,2-dihydropyridine-3-carbonitrile, read-out: % Efficacy
Procedure, shortened: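 CV-1 / pCMX-hLXRβ + LXREx1-Tk-Luc + β-gal; cpd 20 h, 37 °C, ≤0.5% DMSO; Steady-Glo luminescence. 11-pt ½-log curves, duplicate wells, sigmoidal fit → EC50; % efficacy vs high-control agonist, DMSO low control; mean of ≥2 expts.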

Row | EC50 [nM] | Emax [%] | SMILES
1 | 74 | 81 | Cc1nc(C(F)(F)F)cn1-c1ccc(-c2cc(F)c(CO)c(S(C)(=O)=O)c2)cc1-c1ccnn1-c1ccc(Cl)cc1 [Example 288, {3′-[1-(4-chlorophenyl)-1H-pyrazol-5-yl]-3-fluoro-5-(methylsulfonyl)-4′-[2-methyl-4-(trifluoromethyl)-1H-imidazol-1-yl]biphenyl-4-yl}methanol]
2 | 199 | 93 | COc1ccc(-c2oc(C)nc2-c2cc(-c3cc(F)c(CO)c(S(C)(=O)=O)c3)ccc2-n2cc(C(F)(F)F)nc2C)cn1 [Example 570, (3-fluoro-3′-(5-(6-methoxypyridin-3-yl)-2-methyloxazol-4-yl)-4′-(2-methyl-4-(trifluoromethyl)-1H-imidazol-1-yl)-5-(methylsulfonyl)-[1,1′-biphenyl]-4-yl)methanol]
3 | 1380 | 32 | Cc1nc(-c2cc(-c3cccc(S(C)(=O)=O)c3)ccc2-n2cc(C(F)(F)F)nc2C)c(-c2cccnc2OC(F)F)o1 [Example 388, 5-(2-(difluoromethoxy)pyridin-3-yl)-2-methyl-4-(4-(2-methyl-4-(trifluoromethyl)-1H-imidazol-1-yl)-3′-(methylsulfonyl)biphenyl-3-yl)oxazole]
4 | 36 | 91 | Cc1nc(-c2ccc(Cl)cc2Cl)c(-c2cc(-c3cc(F)c(CO)c(S(C)(=O)=O)c3)ccc2-n2cc(C(F)(F)F)nc2C)o1 [Example 609, (3′-(4-(2,4-dichlorophenyl)-2-methyloxazol-5-yl)-3-fluoro-4′-(2-methyl-4-(trifluoromethyl)-1H-imidazol-1-yl)-5-(methylsulfonyl)-[1,1′-biphenyl]-4-yl)methanol]
5 | 257 | 94 | Cc1nc(C(F)(F)F)cn1-c1ccc(-c2cccc(S(C)(=O)=O)c2)cc1-c1oc(CC(=O)O)nc1-c1ccc(OC(F)(F)F)cc1 [Example 610, 2-(5-(4-(2-methyl-4-(trifluoromethyl)-1H-imidazol-1-yl)-3′-(methylsulfonyl)-[1,1′-biphenyl]-3-yl)-4-(4-(trifluoromethoxy)phenyl)oxazol-2-yl)acetic acid]
6 | 48 | 77 | Cc1nc(-c2cc(-c3cc(F)c(CO)c(S(C)(=O)=O)c3)ccc2-n2cc(C(F)(F)F)nc2C)c(-c2ccc(OC(F)F)c(F)c2)o1 [Example 377]
7 | 606 | 90 | Cc1nc(C(F)(F)F)cn1-c1ccc(-c2cccc(S(C)(=O)=O)c2)cc1-n1nncc1-c1ccc(OCC(F)(F)F)cc1 [Example 31, 1-{3′-(methylsulfonyl)-4-[2-methyl-4-(trifluoromethyl)-1H-imidazol-1-yl]biphenyl-3-yl}-5-{4-[(2,2,2-trifluoroethyl)oxy]phenyl}-1H-1,2,3-triazole]
8 | 334 | 86 | CCS(=O)(=O)c1cccc(-c2ccc(-n3cc(C(F)(F)F)nc3C)c(-n3nncc3-c3ccc(OC(F)(F)F)cc3)c2)c1 [Example 215, 1-(3′-(ethylsulfonyl)-4-(2-methyl-4-(trifluoromethyl)-1H-imidazol-1-yl)-[1,1-biphenyl]-3-yl)-5-(4-(trifluoromethoxy)phenyl)-1H-1,2,3-triazole]
9 | 474 | 39 | Cc1nc(-c2cc(-c3cccc(S(C)(=O)=O)c3)ccc2-n2cc(C(F)(F)F)nc2C)c(-c2ccccc2OC(F)F)o1 [Example 547, 5-(2-(difluoromethoxy)phenyl)-2-methyl-4-(4-(2-methyl-4-(trifluoromethyl)-1H-imidazol-1-yl)-3′-(methylsulfonyl)-[1,1′-biphenyl]-3-yl)oxazole]
10 | 13 | 70 | Cc1nc(C(F)(F)F)cn1-c1ccc(-c2ccc(CO)c(S(C)(=O)=O)c2)cc1-c1nc(CC(C)C)oc1-c1ccc(OC(F)(F)F)cc1 [Example 563, (3′-(2-isobutyl-5-(4-(trifluoromethoxy)phenyl)oxazol-4-yl)-4′-(2-methyl-4-(trifluoromethyl)-1H-imidazol-1-yl)-3-(methylsulfonyl)-[1,1′-biphenyl]-4-yl)methanol]
11 | 42 | 112 | Cc1nc(-c2ccc(OC(F)F)cc2)c(-c2cc(-c3cc(F)c(CO)c(S(C)(=O)=O)c3)ccc2-n2cc(C(F)(F)F)nc2C)o1 [Example 624, (3′-(4-(4-(difluoromethoxy)phenyl)-2-methyloxazol-5-yl)-3-fluoro-4′-(2-methyl-4-(trifluoromethyl)-1H-imidazol-1-yl)-5-(methylsulfonyl)-[1,1′-biphenyl]-4-yl)methanol]
12 | 28 | 76 | Cc1nc(-c2cc(-c3cc(F)c(CO)c(S(C)(=O)=O)c3)ccc2-n2cc(C(F)(F)F)nc2C)c(-c2ccc(OC(F)F)c(Cl)c2)o1 [Example 399, (3′-(5-(3-chloro-4-(difluoromethoxy)phenyl)-2-methyloxazol-4-yl)-3-fluoro-4′-(2-methyl-4-(trifluoromethyl)-1H-imidazol-1-yl)-5-(methylsulfonyl)biphenyl-4-yl)methanol]
13 | 67 | 102 | Cc1nc(-c2cc(-c3ccc(CCO)c(S(C)(=O)=O)c3)ccc2-n2cc(C(F)(F)F)nc2C)c(-c2ccc(OC(F)(F)F)cc2)o1 [Example 523, 2-(4′-(2-methyl-4-(trifluoromethyl)-1H-imidazol-1-yl)-3′-(2-methyl-5-(4-(trifluoromethoxy)phenyl)oxazol-4-yl)-3-(methylsulfonyl)-[1,1′-biphenyl]-4-yl)ethanol]
14 | 126 | 61 | Cc1cc(-c2oc(C)nc2-c2cc(-c3cccc(S(C)(=O)=O)c3)ccc2-n2cc(C(F)(F)F)nc2C)cc(Cl)n1 [Example 451, 5-(2-chloro-6-methylpyridin-4-yl)-2-methyl-4-(4-(2-methyl-4-(trifluoromethyl)-1H-imidazol-1-yl)-3′-(methylsulfonyl)biphenyl-3-yl)oxazole]
15 | 306 | 111 | COCc1c(F)cc(-c2ccc(-n3cc(C(F)(F)F)nc3C)c(-n3nncc3-c3ccc(OC(F)(F)F)cc3)c2)cc1S(C)(=O)=O [Example 88, 1-{3′-fluoro-4′-[(methyloxy)methyl]-5′-(methylsulfonyl)-4-[2-methyl-4-(trifluoromethyl)-1H-imidazol-1-yl]biphenyl-3-yl}-5-{4-[(trifluoromethyl)oxy]phenyl}-1H-1,2,3-triazole]
16 | 1380 | 65 | Cc1nc(-c2cc(-c3cccc(C4(C(N)=O)CC4)c3)ccc2-n2cc(C(F)(F)F)nc2C)c(-c2ccc(OC(F)F)c(F)c2)o1 [Example 438, 1-(3′-(5-(4-(difluoromethoxy)-3-fluorophenyl)-2-methyloxazol-4-yl)-4′-(2-methyl-4-(trifluoromethyl)-1H-imidazol-1-yl)biphenyl-3-yl)cyclopropanecarboxamide]
17 | 166 | 68 | Cc1nc(C(F)F)cn1-c1ccc(-c2cc(F)c(CO)c(S(C)(=O)=O)c2)cc1-n1nncc1C(C)c1ccc(Cl)cc1 (stereo not shown) [Example 134, [3′-{5-[1-(4-chlorophenyl)ethyl]-1H-1,2,3-triazol-1-yl}-4′-[4-(difluoromethyl)-2-methyl-1H-imidazol-1-yl]-3-fluoro-5-(methylsulfonyl)biphenyl-4-yl]methanol]
18 | 431 | 61 | Cc1nc(C(F)F)cn1-c1ccc(-c2cccc(S(=O)(=O)N(C)C)c2)cc1-n1nncc1C(C)c1ccc(Cl)cc1 (stereo not shown) [Example 132, 3′-{5-[1-(4-chlorophenyl)ethyl]-1H-1,2,3-triazol-1-yl}-4′-[4-(difluoromethyl)-2-methyl-1H-imidazol-1-yl]-N,N-dimethylbiphenyl-3-sulfonamide]
19 | 28 | 100 | Cc1cc(-c2cc(-c3cccc(S(C)(=O)=O)c3)ccc2-n2cc(C(F)(F)F)nc2C)n(-c2ccc3c(c2)OC(F)(F)O3)n1 [Example 304, 1-(2,2-difluorobenzo[d][1,3]dioxol-5-yl)-3-methyl-5-(4-(2-methyl-4-(trifluoromethyl)-1H-imidazol-1-yl)-3′-(methylsulfonyl)-[1,1′-biphenyl]-3-yl)-1H-pyrazole]
20 | 201 | 105 | Cc1nc(C(F)(F)F)cn1-c1ccc(-c2cccc(S(C)(=O)=O)c2)cc1-c1cnnn1-c1ccc(OC(F)(F)F)cc1 [Example 242, 5-{3′-(methylsulfonyl)-4-[2-methyl-4-(trifluoromethyl)-1H-imidazol-1-yl]biphenyl-3-yl}-1-{4-[(trifluoromethyl)oxy]phenyl}-1H-1,2,3-triazole]
